Experiments:
Assay type in all cases: in vivo
[1] = test system: two-spotted red spiders (Tetranychus telarius); test: Acaricidal effect on two-spotted red spiders, imago-killing rate, 500 ppm leaf immersion; details: female imagoes on green bean leaf, leaf immersion about 5 seconds, concentration 500 ppm, fifth day after treatment, 25° C.
Description: (§1) Acaricidal Effect on Larvae of Two-Spotted Red Spiders (Tetranychus telarius): A stem of green bean seedling having only one primary left was placed in a test tube (capacity: 50 ml) containing water. 15 female imagoes of two-spotted red spiders were put on each leaf. One day after, the leaf having the two-spotted red spiders was immersed (about 5 seconds) in the present insecticide diluted with water, which had been prepared according to the Preparation Example, (concentration: 500 ppm, repetition: twice). They were kept in a constant-temperature room at 25° C. On the fifth day after the treatment, the female imagoes on the leaf of the green bean seedling were observed. The imago-killing rate (%) was determined on the basis of the results of the observation to obtain the results shown in Table 6.

[2] = test system: diamond backmoth (Plutella xylostera); test: Insecticidal effect on larvae of diamond backmoth (cabbage leaf dip); details: 500 ppm; cabbage leaf immersed 1 minute; third-instar larvae; fourth day; 25° C.
Description: Insecticidal Effect on Larvae of Diamond Backmoth (Plutella xylostera) The present insecticide prepared according to the Preparation Example was diluted with water. A piece (diameter: 6 cm) of a cabbage leaf was immersed in the diluted insecticide for 1 minute. After air drying, the piece was placed in a plastic cup (inner diameter: 7 cm). 5 third-instar larvae of diamond backmoth (Plutella xylostera) were put in the cup (1 concentration, repetition: twice). The cup was kept in a constant temperature room at 25° C. On the fourth day, the survival rate and degree of writhing of the larvae were examined. The writhing larvae were each counted to be ½.

[3] = test system: eggs of two-spotted red spiders (Tetranychus telarius); test: Acaricidal effect on eggs of two-spotted red spiders, ovicidal rate, 500 ppm spray; details: eggs on green bean leaf disc; spray 3.5 ml; concentration 500 ppm; 8 days after treatment
Description: Acaricidal Effect on Eggs of Two-Spotted Red Spiders (Tetranychus telarius) 5 female imagoes of two-spotted red spiders were released on a green been leaf disc (diameter: 3 cm). Then, the imagoes were left to lay eggs on the leaf disc for 20 hours and then removed therefrom. The present acaricide which had been prepared according to Preparation Example 1 was diluted with water to a predetermined concentration. 3.5 ml of the preparation thus obtained was sprayed with a rotary spraying column (Mizuho Rika) over the disc (concentration: 500 ppm, repetition: twice). 8 days after the treatment, the number of unhatched eggs was counted to determine the ovicidal rate (%).

[4] = test system: two-spotted red spiders (Tetranychus telarius); test: Acaricidal effect of a low concentration (12.5 ppm) on two-spotted red spiders; details: leaf immersion, female imagoes, fifth day after treatment, 25° C.
Description: as §1, with “A” for “Acaricidal Effect on Larvae of Two-Spotted Red Spiders (Tetranychus telarius): A”
Acaricidal Effect of a Low Concentration of Acaricide on Larvae of Two-Spotted Red Spiders (Tetranychus telarius)
The same tests as those of Test Example 2 were repeated except that the concentration of the acaricide was changed to 12.5 ppm.

| SMILES | Acaricidal rate (%) [1] [%] | Killing rate [2] [%] | Ovicidal rate (%) [3] [%] | acaricidal effect [4] [%] |
| --- | --- | --- | --- | --- |
| CO/C=C(/C(=O)OC)c1c(C#Cc2cccc(C(F)(F)F)c2)c(C)nn1C [Table 1-2] | 100 | 60 | 100 | – |
| COC=C(C(=O)OC)c1c(C#Cc2ccc(C(F)(F)F)cc2)c(C)nn1C [Table 1-3, Methyl α-{1,3-dimethyl-4-(4-trifluoromethylphenylethynyl)-5-pyrazole}-β-methoxyacrylate] | 100 | 80 | 100 | 100 |
| CO/C=C(/C(=O)OC)c1c(C#Cc2cc(Cl)cc(Cl)c2)c(C)nn1C [Table 1-6] | 100 | – | 100 | 100 |
| CO/C=C(/C(=O)OC)c1c(C#Cc2ccc(Oc3ccc(C(F)(F)F)cn3)cc2)c(C)nn1C [Table 1-13] | 100 | 100 | 100 | – |
| CCCc1nn(C)c(/C(=C\OC)C(=O)OC)c1C#Cc1cc(C(F)(F)F)cc(C(F)(F)F)c1 [Table 1-15] | 100 | – | 100 | 100 |
| CCCc1nn(C)c(/C(=C/OC)C(=O)OC)c1C#Cc1cc(C(F)(F)F)cc(C(F)(F)F)c1 [Table 1-16] | 100 | – | 100 | 100 |
| CO/C=C(/C(=O)OC)c1c(C#Cc2cc(C(F)(F)F)cc(C(F)(F)F)c2)c(C(C)(C)C)nn1C [Table 1-18] | 100 | – | 100 | 100 |
| CO/C=C(/C(=O)OC)c1c(C#Cc2cc(C(F)(F)F)cc(C(F)(F)F)c2)c(-c2ccccc2)nn1C [Table 1-19] | 100 | – | 100 | 100 |
| COC=C(C(=O)OC)c1c(C#Cc2cc(C(F)(F)F)cc(C(F)(F)F)c2)c(C(F)(F)F)nn1C [Table 1-20, Methyl α-[1-methyl-3-trifluoromethyl-4{3,5-bis(trifluoromethyl)phenylethynyl}-5-pyrazole]-β-methoxyacrylate] | 100 | – | 100 | 100 |
| CCc1nn(CC)c(/C(=C\OC)C(=O)OC)c1C#Cc1cc(C(F)(F)F)cc(C(F)(F)F)c1 [Table 1-28] | 100 | – | 100 | 100 |
| CO/C=C(/C(=O)OC)c1c(C#Cc2ccc(OC(F)F)cc2)c(C)nn1C [Table 1-30] | 100 | – | 100 | 100 |
| CO/C=C(/C(=O)OC)c1c(C#Cc2cc(C(F)(F)F)cc(C(F)(F)F)c2)c(-c2ccc(C(F)(F)F)cc2)nn1C [Table 1-36] | – | – | – | 100 |
| CCn1nc(C(F)(F)F)c(C#Cc2nc(OC(C)C)cc(C(F)(F)F)n2)c1/C(=C\OC)C(=O)OC [Table 1-37] | 100 | – | 100 | 100 |
| CCn1nc(C(F)(F)F)c(C#Cc2cc(C(F)(F)F)cc(C(F)(F)F)c2)c1/C(=C\OC)C(=O)OC [Table 1-39] | 100 | – | 100 | 100 |
| CCn1nc(C(F)(F)F)c(C#Cc2cc(C(F)(F)F)cc(C(F)(F)F)c2)c1/C(=C/OC)C(=O)OC [Table 1-40] | 100 | – | 100 | 100 |
| CO/C=C(/C(=O)OC)c1c(OCc2cccc(Oc3ccc(C(F)(F)F)cc3)c2)c(C)nn1C [Table 2-3] | 100 | 100 | 100 | – |
| CO/C=C(/C(=O)OC)c1c(OCc2ccc(C(C)(C)C)cc2)c(C)nn1C [Table 2-4] | 100 | 70 | 100 | – |
| CO/C=C(/C(=O)OC)c1c(OCc2ccc(C(F)(F)F)cc2)c(C)nn1C [Table 2-5] | 100 | 90 | 100 | – |

| SMILES | Acaricidal rate (%) [1] [%] | Killing rate [2] [%] | Ovicidal rate (%) [3] [%] | acaricidal effect [4] [%] |
| --- | --- | --- | --- | --- |
| CO/C=C(/C(=O)OC)c1c(OCc2cc(C(F)(F)F)cc(C(F)(F)F)c2)c(C(F)(F)F)nn1C [Table 2-26] | 100 | – | 100 | 100 |
| CO/C=C(/C(=O)OC)c1c(OCc2ccc(OC(F)F)cc2)c(C(F)(F)F)nn1C [Table 2-30] | 100 | – | 100 | – |
| CCc1nn(CC)c(/C(=C\OC)C(=O)OC)c1OCc1nc(OC(C)C)cc(C(F)(F)F)n1 [Table 2-32] | 100 | – | 100 | – |
| CCc1nn(CC)c(/C(=C\OC)C(=O)OC)c1OCc1nc(Cl)cc(C(F)(F)F)n1 [Table 2-33] | 100 | – | 100 | – |
| CO/C=C(/C(=O)OC)c1c(COc2ccc(C(F)(F)F)cc2)c(C)nn1C [Table 3-61] | 100 | – | 100 | – |
| CO/C=C(/C(=O)OC)c1c(COc2ccc(OC(F)(F)F)cc2)c(C)nn1C [Table 3-63] | 100 | – | 100 | – |
| CO/C=C(/C(=O)OC)c1c(CSc2ccc(C(F)(F)F)cc2)c(C)nn1C [Table 3-66] | 100 | – | 100 | – |
| CCc1nn(C)c(/C(=N\OC)C(=O)OC)c1CON=C(C)c1ccc(C(F)(F)F)cc1 [Table 3-73] | – | 100 | – | – |
| CCc1nn(C)c(/C(=N\OC)C(=O)NC)c1CON=C(C)c1ccc(OC(F)(F)F)cc1 [Table 3-75] | 100 | – | 100 | – |
| CCc1nn(C)c(/C(=N\OC)C(=O)OC)c1CON=C(C)c1cccc(OC(F)F)c1 [Table 3-76] | – | 100 | – | – |
| CO/N=C(/C(=O)OC)c1c(CON=C(C)c2ccc(C(F)(F)F)cc2)c(C)nn1C [Table 3-90] | 100 | – | 100 | – |
| CNC(=O)C(=NOC)c1c(CON=C(C)c2ccc(C(F)(F)F)cc2)c(C)nn1C [Table 3-92] | 100 | – | 100 | – |
| CO/C=C(/C(=O)OC)c1c(CON=C(C)c2ccc(OC(F)(F)F)cc2)c(C)nn1C [Table 3-101] | 100 | 100 | 100 | – |
| CO/C=C(/C(=O)OC)c1c(CON=C(C)c2cccc(OC(F)F)c2)c(C)nn1C [Table 3-102] | 100 | – | 100 | – |
| C#CCN(C(=O)OC)c1c(OCc2ccccc2)c(C)nn1C [Table 4-23] | 100 | – | 100 | – |
| C#CCN(C(=O)OC)c1c(OCc2cc(Cl)ccc2Cl)c(C)nn1C [Table 4-40] | 100 | – | 100 | – |
| C#CCN(C(=O)OC)c1c(OCc2cccc(OCc3ccccc3)c2)c(C)nn1C [Table 4-85] | 100 | – | 100 | – |

From US20020156115A1, “Insecticidal and acaricidal composition, and methods of using the same” (AGRO-KANESHO CO., LTD., priority 1999, published 2002)
